Literature values, collected in patent publication US10925856B2, “Methods and compositions involving bucindolol for the treatment of atrial fibrillation” (priority 2018, dated 2021).
Where two headings read alike, the source gives them in different places.

Tested on: patients with HF and/or AF
Conditions: persistent AF recently converted to SR, cited from earlier work

SMILES | AF recurrence rate (Katritsis et al) | AF recurrence rate (Plewan et al)
CC(C)NCC(O)COc1ccc(COCCOC(C)C)cc1 (stereo not shown) [bisoprolol] | 46% | 42%
COc1ccccc1OCCNCC(O)COc1cccc2[nH]c3ccccc3c12 (stereo not shown) [carvedilol] | 32% | –
CC(C)NCC(O)c1ccc(NS(C)(=O)=O)cc1 (stereo not shown) [sotalol] | – | 41%
